Data taken from patent US8461305B2, “L-fucose α1→6 specific lectin” (J-Oil Mills, Inc., priority 2008, dated 2013).

B1: Aleuria aurantia lectin (protein)
chain: PTEFLYTSKIAAISWAATGGRQQRVYFQDLNGKIREAQRGGDNPWTGGSSQNVIGEAKLFSPLAAVTWKSAQGIQIRVYCVNKDNILSEFVYDGSKWITGQLGSVGVKVGSNSKLAALQWGGSESAPPNIRVYYQKSNGSGSSIHEYVWSGKWTAGASFGSTVPGTGIGATAIGPGRLRIYYQATDNKIREHCWDSNSWYVGGFSASASAGVSIAAISWGSTPNIRVYWQKGREELYEAAYGGSWNTPGQIKDASRPTPSLPDTFIAANSSGNIDISVFFQASGVSLQQWQWISGKGWSIGAVVPTGTPAGW

Assays:
[1] = frontal affinity chromatography (FAC), association constant to PA sugar chains having α1→6 L-fucose; type: binding; conditions: 25 degrees C.
Experimental: The following section will describe a method of calculating an association constant by frontal affinity chromatography (FAC). This method is based on the following principle. […] Then, the elution front end (front) is observed immediately. When there is an affinity with lectin, the elution of the sugar chain is delayed.
The preparation of a lectin column used in the apparatus is performed in the method as described below. 1. Purified lectin is dissolved in 0.1 to 0.2M of NaHCO3 buffer solution (pH 8.3 to 8.5). 2. The lectin is immobilized, via a lectin primary amino group, a carrier such as NHS activated sepharose. 3. Then, the lectin is blocked by Tris buffer solution including primary amine or ethanolamine for example. 4. Lectin-sepharose is suspended in 10 mM Tris buffer, including 0.8% of NaCl (pH 7.4, TBS). Then, lectin immobilized resin is filled in a miniature column (φ2 mm×10 mm, 31.4 μl). 5. The miniature column in which the lectin immobilized resin is filled is protected by a holder and the lectin column is connected to an FAC automatic analysis apparatus (FAC-1, SHIMADZU CORPORATION).
Then, the elution of the PA sugar chain from the column is detected by a fluorescence detector (excitation wavelength/fluorescence wavelength: 310 nm/380 nm).
Based on the detection data, by using the elution front end (Vo) of the sugar chain (PA rhamnose) not interacting with lectin as a reference, the delay (V−Vo) of the elution front end (V) of a sugar chain interacting with lectin is calculated as an interaction strength. Then, based on the following FAC criteria expressions, the association constant (Ka) between the sugar chain and lectin is calculated based on V−Vo and Bt. If the interaction strength (V−Vo value) and the association constant are higher, a higher affinity is caused between lectin and an L-fucose α1→6 sugar chain.
[In the formula, A means substance used for the elution, Ao means the initial concentration of the substance A, B means a immobilized ligand, V means the elution volume, Vo means the elution front end volume of the substance not interacting with the immobilized ligand B at all, Bt means an effective ligand amount, Kd means a dissociation constant (an inverse of the association constant)].
Pyridylaminated (PA) sugar chains shown in FIG. 1 and FIG. 2 were used to frontal affinity chromatography (FAC) analysis. PA sugars were purchased from TAKARA BIO INC., SEIKAGAKU BIOBUSINESS CORPORATION, and Masuda Chemical Industries co., LTD. PA sugar were also obtained by pyridylaminating, by GlycoTAG®(TAKARA BIO INC.), an unlabeled sugar chain or a sugar chain obtained by subjecting a sugar chain to enzyme digestion for example.
Lectin was dissolved in 0.2 M NaHCO3 buffer solution (pH 8.3) including 0.5 M NaCl and coupled to the NHS-activated sepharose (GE Healthcare Bioscience) by following the manufacturer's instructions. Then, lectin immobilized sepharose was suspended in 10 mM Tris buffer (pH 7.4, TBS) including […] and the resultant matter was filled in a miniature column (φ2 mm×10 mm, 31.4 μl).
Frontal affinity chromatography was performed using FAC automatic analysis apparatus (FAC-1, SHIMADZU CORPORATION). In particular, the above-prepared lectin column was inserted to a stainless steel holder and the holder was connected to FAC-1 apparatus. The flow rate and the column temperature were maintained at 0.125 ml/min and 25 degrees C., respectively. After the miniature column was equilibrated by the TBS, an excessive volume (0.5 ml to 4 ml) of a PA sugar chain (3.75 nM or 7.5 nM) was continuously inputted to the column using an automatic sampling apparatus.
The fluorescent strength of the eluate of the PA sugar (excitation wavelength of 310 nm and fluorescence wavelength of 380 nm) was monitored to measure the interaction strength [a difference of the front end eluate to the standard oligosaccharide (PA rhamnose): V−V0]. […]

glycoproteins = test: hemagglutinating inhibition test with glycoproteins (sugar binding specificity); type: cell-based
Excerpt: The sugar binding specificity of lectin also can be confirmed by using erythrocytes that can be specifically agglutinated by the lectin to investigate the sugar type that may inhibit the agglutination of the erythrocytes and the concentration thereof.
Various monosaccharides, oligosaccharides, and polysaccharides shown in Table 2 and glycoproteins shown in Table 3 were subjected to hemagglutinating inhibition test to evaluate PTL of Example 1 and the SRL of Example 2 with regard to the sugar binding specificity.
On a 96 well U-bottom microtiter plate, double dilution series of 10 μl of monosaccharide, oligosaccharide, polysaccharide, and glycoprotein solutions were prepared. Then, lectin solution adjusted in advance to have titer 4 was added in an amount of 10 μl to the respective wells. Then, the plate was subjected to a still-standing at a room temperature for one hour for sensitization. Then, 10 μl of 4%-red blood cell suspension was added to the respective wells and the plate was further subjected to a still-standing at a room temperature for one hour. […] The lowest concentration showing the inhibition was assumed as the minimum inhibition concentration. The lower the minimum inhibition concentration is, the higher the specificity to lectin is.
For comparison, the sugar binding specificity was evaluated using the following commercially-available lectins: Comparison Example 1: AAL (SEIKAGAKU BIOBUSINESS CORPORATION—J-OIL MILLS, Inc.), Comparison Example 2: AOL (TOKYO CHEMICAL INDUSTRY CO., LTD.—Gekkeikan Sake Company, Ltd.), Comparison Example 3: LCA (SEIKAGAKU BIOBUSINESS CORPORATION—J-OIL MILLS, Inc.), and Comparison Example 4: PSA (SEIKAGAKU BIOBUSINESS CORPORATION—J-OIL MILLS, Inc.).

[2] = inhibitor: Bovine blood serum albumin
[3] = inhibitor: Human immune globulin A
[4] = inhibitor: Human immune globulin G
[5] = inhibitor: α1-acidic glycoprotein

Molecule	association constant Ka ([1]; Sugar chain No. 015) [M⁻¹]	association constant Ka ([1]; Sugar chain No. 201) [M⁻¹]	association constant Ka ([1]; Sugar chain No. 202) [M⁻¹]	association constant Ka ([1]; Sugar chain No. 203) [M⁻¹]	association constant Ka ([1]; Sugar chain No. 401) [M⁻¹]	association constant Ka ([1]; Sugar chain No. 402) [M⁻¹]	association constant Ka ([1]; Sugar chain No. 403) [M⁻¹]	association constant Ka ([1]; Sugar chain No. 404) [M⁻¹]	association constant Ka ([1]; Sugar chain No. 405) [M⁻¹]	association constant Ka ([1]; Sugar chain No. 406) [M⁻¹]	association constant Ka ([1]; Sugar chain No. 407) [M⁻¹]	association constant Ka ([1]; Sugar chain No. 410) [M⁻¹]	association constant Ka ([1]; Sugar chain No. 413) [M⁻¹]	association constant Ka ([1]; Sugar chain No. 418) [M⁻¹]	association constant Ka ([1]; Sugar chain No. 601) [M⁻¹]	association constant Ka ([1]; Sugar chain No. 602) [M⁻¹]	minimum inhibition concentration of hemagglutination (glycoproteins; inhibitor: Asialofetuin) [μl/ml]	minimum inhibition concentration of hemagglutination (glycoproteins; inhibitor: Asialomucin (pig)) [μl/ml]	minimum inhibition concentration of hemagglutination (glycoproteins; [2]) [μl/ml]	minimum inhibition concentration of hemagglutination (glycoproteins; inhibitor: Casein) [μl/ml]	further results
Aspergillus oryzae lectin [AOL, reference compound]	130000	120000	120000	130000	140000	160000	130000	150000	130000	110000	110000	100000	79000	63000	140000	140000	>250	62.5	>250	>250	minimum inhibition concentration of hemagglutination (glycoproteins; inhibitor: Fetuin): >250 μl/ml; minimum inhibition concentration of hemagglutination (glycoproteins; [3]): >250 μl/ml; minimum inhibition concentration of hemagglutination (glycoproteins; [4]): >250 μl/ml; minimum inhibition concentration of hemagglutination (glycoproteins; inhibitor: Lactoferrin): >250 μl/ml; minimum inhibition concentration of hemagglutination (glycoproteins; inhibitor: Mucin (bovine)): >250 μl/ml; minimum inhibition concentration of hemagglutination (glycoproteins; inhibitor: Mucin (pig)): 62.5 μl/ml; minimum inhibition concentration of hemagglutination (glycoproteins; inhibitor: Ribonuclease): >250 μl/ml; minimum inhibition concentration of hemagglutination (glycoproteins; inhibitor: Thyroglobulin): >250 μl/ml; minimum inhibition concentration of hemagglutination (glycoproteins; inhibitor: Transferrin): >250 μl/ml; minimum inhibition concentration of hemagglutination (glycoproteins; [5]): >250 μl/ml
B1	91000	51000	54000	66000	55000	11000	52000	65000	56000	47000	45000	38000	32000	<1000	61000	52000	>250	31.3	>250	>250	minimum inhibition concentration of hemagglutination (glycoproteins; inhibitor: Fetuin): >250 μl/ml; minimum inhibition concentration of hemagglutination (glycoproteins; [3]): >250 μl/ml; minimum inhibition concentration of hemagglutination (glycoproteins; [4]): >250 μl/ml; minimum inhibition concentration of hemagglutination (glycoproteins; inhibitor: Lactoferrin): >250 μl/ml; minimum inhibition concentration of hemagglutination (glycoproteins; inhibitor: Mucin (bovine)): >250 μl/ml; minimum inhibition concentration of hemagglutination (glycoproteins; inhibitor: Mucin (pig)): 15.6 μl/ml; minimum inhibition concentration of hemagglutination (glycoproteins; inhibitor: Ribonuclease): >250 μl/ml; minimum inhibition concentration of hemagglutination (glycoproteins; inhibitor: Thyroglobulin): 125 μl/ml; minimum inhibition concentration of hemagglutination (glycoproteins; inhibitor: Transferrin): >250 μl/ml; minimum inhibition concentration of hemagglutination (glycoproteins; [5]): >250 μl/ml
